From ChEMBL document CHEMBL1147906, “A comparative study of mesoionic compounds in Leishmania sp. and toxicity evaluation” (Eur J Med Chem, 2007)

What was measured:
[1] = Cytotoxicity against BALB/c mouse peritoneal macrophages assessed as cell viability after 24 hrs by MTT assay; assay type: cell-based, Peritoneal macrophage cell; conditions: read-out: TD50
Leishmania braziliensis = test: Antileishmanial activity against Leishmania braziliensis MCAN/BR/98/R619 promastigotes; assay type: functional; conditions: read-out: ED50 (the source's name)
Leishmania chagasi = test: Antileishmanial activity against Leishmania chagasi MCAN/BR/97/P142 promastigotes; assay type: functional; conditions: read-out: ED50 (the source's name)

| Compound | CC50 at 24 h [1] | EC50 (Leishmania braziliensis) | EC50 (Leishmania chagasi) |
| --- | --- | --- | --- |
| Brc1ccc(/C=C/c2sc(Nc3ccccc3)n[n+]2-c2ccccc2)cc1 | 6.59 µM | 2.93 µM | 9.97 µM |
| Fc1ccc(/C=C/c2sc(Nc3ccccc3)n[n+]2-c2ccccc2)cc1 | 5.82 µM | 5.1 µM | 3.42 µM |
| Cc1ccc(/C=C/c2sc(Nc3ccccc3)n[n+]2-c2ccccc2)cc1 | 4.94 µM | 20.7 µM | 31.1 µM |
| COc1cccc(/C=C/c2sc(Nc3ccccc3)n[n+]2-c2ccccc2)c1 | 0.61 µM | 30.6 µM | 4.75 µM |
| CCOc1ccc(/C=C/c2sc(Nc3ccccc3)n[n+]2-c2ccccc2)cc1 | 9.73 µM | 13 µM | 33.3 µM |
| Clc1ccc(/C=C/c2sc(Nc3ccccc3)n[n+]2-c2ccccc2)cc1 | 12 µM | 6.23 µM | 13.2 µM |
| C(=C\c1sc(Nc2ccccc2)n[n+]1-c1ccccc1)/c1ccccc1 | 3.06 µM | 49.6 µM | 22.8 µM |
| N=C(N)c1ccc(OCCCCCOc2ccc(C(=N)N)cc2)cc1 [PENTAMIDINE] | 2.21 µM | 64.2 µM | 27.5 µM |
| Brc1cccc(/C=C/c2sc(Nc3ccccc3)n[n+]2-c2ccccc2)c1 | 2.47 µM | 25.9 µM | 145 µM |
| Oc1ccc(/C=C/c2sc(Nc3ccccc3)n[n+]2-c2ccccc2)cc1 | 32 µM | 376 µM | 415 µM |
| O=[N+]([O-])c1cccc(/C=C/c2sc(Nc3ccccc3)n[n+]2-c2ccccc2)c1 | 5.54 µM | 221 µM | 23.6 µM |
| COc1ccc(/C=C/c2sc(Nc3ccccc3)n[n+]2-c2ccccc2)cc1 | 1.13 µM | 46.2 µM | 8.31 µM |
| O=[N+]([O-])c1ccc(/C=C/c2sc(Nc3ccccc3)n[n+]2-c2ccccc2)cc1 | 5.49 µM | 70.8 µM | 22.8 µM |
| N#Cc1ccc(/C=C/c2sc(Nc3ccccc3)n[n+]2-c2ccccc2)cc1 | 441 µM | 28.1 µM | 16 µM |
| Clc1cccc(/C=C/c2sc(Nc3ccccc3)n[n+]2-c2ccccc2)c1 | 6.23 µM | 1.72 µM | 5.17 µM |
